Values after ≈ are worked out from the molar mass of the structure shown.
Assays:
[1] = Aqueous solubility of compound in FaSSIF at pH 6.28; type: physicochemical
[2] = Half life in rat liver microsomes; type: ADME, Microsome
[3] = Half life in human liver microsomes; type: ADME, Microsome
[4] = Aqueous solubility of compound in SGF at pH 2.26; type: physicochemical
[5] = Half life in mouse Hepatocyte; type: ADME, cell-based; settings: hepatocytes
[6] = Oral bioavailability in rat at 10 mg/kg measured upto 24 hrs; type: ADME, organism-based; settings: in vivo
[7] = Tmax in ICR mouse at 10 mg/kg,po measured upto 24 hrs; type: ADME, organism-based; settings: in vivo
[8] = Apparent permeability across apical to basolateral side in human Caco-2 cells; type: ADME, cell-based
[9] = Cmax in C57BL/6 mouse at 1 mg/kg,po measured upto 24 hrs; type: ADME, organism-based; parameters: dose 1 mg/kg, time < 24 hrs, route po; settings: in vivo
[10] = Apparent permeability across basolateral to apical side in human Caco-2 cells; type: ADME, cell-based
[11] = Aqueous solubility of compound in FeSSIF at pH 4.83; type: physicochemical
[12] = Drug distribution in C57BL/6 mouse plasma at po administration; type: ADME, organism-based; settings: in vivo
[13] = AUClast in ICR mouse at 10 mg/kg,po measured upto 24 hrs; type: ADME, organism-based; parameters: time < 24 hrs, dose 10 mg/kg, route po; settings: in vivo
[14] = Oral bioavailability in dog at 10 mg/kg measured upto 24 hrs; type: ADME, organism-based, Canis lupus familiaris; settings: in vivo
[15] = AUClast in ICR mouse at 1 mg/kg,iv measured upto 24 hrs; type: ADME, organism-based; parameters: dose 1 mg/kg, time < 24 hrs, route iv; settings: in vivo
[16] = Half life in dog liver microsomes; type: ADME, Canis lupus familiaris, Microsome
[17] = Half life in mouse liver microsomes; type: ADME, Microsome
[18] = Clearance in ICR mouse at 1 mg/kg,iv measured upto 24 hrs; type: ADME, organism-based; settings: in vivo
[19] = Cmax in ICR mouse at 10 mg/kg,po measured upto 24 hrs; type: ADME, organism-based; parameters: time < 24 hrs, dose 10 mg/kg, route po; settings: in vivo
[20] = Half life in monkey liver microsomes; type: ADME, Macaca mulatta, Microsome; settings: rhesus monkey
[21] = Half life in ICR mouse at 1 mg/kg,iv measured upto 24 hrs; type: ADME, organism-based; settings: in vivo
[22] = Cmax in ICR mouse at 1 mg/kg,iv measured upto 24 hrs; type: ADME, organism-based; parameters: time < 24 hrs, dose 1 mg/kg, route iv; settings: in vivo
[23] = Oral bioavailability in ICR mouse at 10 mg/kg measured upto 24 hrs; type: ADME, organism-based; settings: in vivo
[24] = Half life in ICR mouse at 10 mg/kg,po measured upto 24 hrs; type: ADME, organism-based; settings: in vivo
[25] = Volume of distribution at steady state in ICR mouse at 1 mg/kg,iv measured upto 24 hrs; type: ADME, organism-based; settings: in vivo, read-out: Vdss

Work on `COc1ncc(C(=O)N2CCN(C(=O)/C=C/c3ccc4c(c3)OC(F)(F)O4)CC2)cn1` yielded a solubility [1] of 40 µM (≈ 17.3 µg/mL), a half-life [2] of over 3.11 h and a half-life [3] of over 3.11 h. It also gave a solubility [4] of 63 µM (≈ 27.2 µg/mL), a half-life [5] of 22.2 h and a bioavailability [6] of over 100%. It also gave a Tmax [7] of 1.33 h, a Papp A→B [8] of 19.6 ×10⁻⁶ cm/s and a Cmax [9] of 878 ng/mL. For the same compound, the Papp B→A [10] was 16 ×10⁻⁶ cm/s, the solubility [11] was 134 µM (≈ 57.9 µg/mL) and the Drug uptake [12] was “Dose-Dependent Effect”. For the same compound, the AUC(0-t) at 24 h [13] was 49700 ng·h/mL, the bioavailability [14] was over 100% and the AUC(0-t) at 24 h [15] was 4190 ng·h/mL. The half-life [16] was over 3.11 h, the half-life [17] was over 3.11 h and the clearance [18] was 3.98 mL/min/kg. The Cmax [19] was 5900 ng/mL and the half-life [20] was over 3.11 h.
Compound `O=C(/C=C/c1ccc2c(c1)OC(F)(F)O2)N1CCN(C(=O)N2CCC2)CC1` has a half-life [21] of 0.42 h, a Cmax [22] of 1000 ng/mL and a Tmax [7] of 0.25 h. It also gave an AUC(0-t) at 24 h [13] of 6840 ng·h/mL, an AUC(0-t) at 24 h [15] of 586 ng·h/mL and a bioavailability [23] of 116%. The half-life [24] was 1.43 h, the clearance [18] was 27.9 mL/min/kg and the Vd [25] was 0.94 L/kg. For the same compound, the Cmax [19] was 4900 ng/mL.
